Results: patent US20230085307A1, “PYRIDAZINONE COMPOUND AND HERBICIDE” (NISSAN CHEMICAL CORPORATION, priority 2019, published 2023)

What was measured:
[1] = test system: persian speedwell; assay: Test Example 4: herbicidal effect by soil treatment (Table 19, symbol R); assay type: in vivo, Persian speedwell (Veronica persica); conditions: amount of applied herbicide 320 g/ha
How it was run: (§1)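 Scoring uses the grading scale of an earlier test, three weeks post-application. Treatment consists of spraying a diluted emulsion formulation across the surface of sterilized diluvial soil in which seeds are buried near 1.5 cm deep; boxes are kept in a greenhouse between 25° C. and 30° C.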

[2] = test system: barnyard grass; assay: Test Example 3: herbicidal effect by foliage application, Wagner pot (Table 18, symbol H); assay type: in vivo, barnyard grass (Echinochloa crus-galli); conditions: 320 g/ha
How it was run: (§2)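 Plants were sown in alluvial soil held under 0.1–0.5 cm standing water and grown 14 days in a greenhouse at 25–30 °C. An emulsifiable formulation, water-diluted to the set dose, was then sprayed onto the foliage, and effects were scored three weeks later using previously defined criteria.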

[3] = test system: rice flat sedge; assay: Test Example 3: herbicidal effect by foliage application, Wagner pot (Table 18, symbol E); assay type: in vivo, rice flat sedge (Cyperus iria); conditions: 320 g/ha
How it was run: as §2

[4] = test system: lambsquarters; assay: Test Example 5: herbicidal effect by foliage application, plastic box (Table 20, symbol O); assay type: in vivo, lambsquarters (Chenopodium album); conditions: foliage application, three weeks after application
How it was run: (§3)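 Post-emergence foliar test in sterilized diluvial soil. Compound applied as water-diluted emulsion at a predetermined rate to 14-day-old plants; evaluation at three weeks.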

[5] = test system: blackgrass; assay: Test Example 5: herbicidal effect by foliage application, plastic box (Table 20, symbol J); assay type: in vivo, blackgrass (Alopecurus myosuroides); conditions: foliage application, three weeks after application
How it was run: as §3

[6] = test system: barnyard grass; assay: Test Example 5: herbicidal effect by foliage application, plastic box (Table 20, symbol H); assay type: in vivo, barnyard grass (Echinochloa crus-galli); conditions: foliage application, three weeks after application
How it was run: as §3

[7] = test system: velvetleaf; assay: Test Example 4: herbicidal effect by soil treatment (Table 19, symbol M); assay type: in vivo, velvetleaf (Abutilon theophrasti); conditions: amount of applied herbicide 320 g/ha
How it was run: as §1

[8] = test system: false cleavers; assay: Test Example 4: herbicidal effect by soil treatment (Table 19, symbol Q); assay type: in vivo, false cleavers (Galium spurium); conditions: amount of applied herbicide 320 g/ha
How it was run: as §1

[9] = test system: windgrass; assay: Test Example 5: herbicidal effect by foliage application, plastic box (Table 20, symbol L); assay type: in vivo, windgrass (Apera spica-venti); conditions: foliage application, three weeks after application
How it was run: as §3

[10] = test system: blackgrass; assay: Test Example 4: herbicidal effect by soil treatment (Table 19, symbol J); assay type: in vivo, blackgrass (Alopecurus myosuroides); conditions: amount of applied herbicide 320 g/ha
How it was run: as §1

[11] = test system: Chinese sprangletop; assay: Test Example 3: herbicidal effect by foliage application, Wagner pot (Table 18, symbol D); assay type: in vivo, chinese sprangletop (Leptochloa chinensis); conditions: 320 g/ha
How it was run: as §2

[12] = test system: false cleavers; assay: Test Example 5: herbicidal effect by foliage application, plastic box (Table 20, symbol Q); assay type: in vivo, false cleavers (Galium spurium); conditions: foliage application, three weeks after application
How it was run: as §3

[13] = test system: green foxtail; assay: Test Example 5: herbicidal effect by foliage application, plastic box (Table 20, symbol G); assay type: in vivo, green foxtail (Setaria viridis); conditions: foliage application, three weeks after application
How it was run: as §3

[14] = test system: southern crabgrass; assay: Test Example 4: herbicidal effect by soil treatment (Table 19, symbol F); assay type: in vivo, southern crabgrass (Digitaria ciliaris); conditions: amount of applied herbicide 320 g/ha
How it was run: as §1

[15] = test system: velvetleaf; assay: Test Example 5: herbicidal effect by foliage application, plastic box (Table 20, symbol M); assay type: in vivo, velvetleaf (Abutilon theophrasti); conditions: foliage application, three weeks after application
How it was run: as §3

[16] = test system: redroot pigweed; assay: Test Example 4: herbicidal effect by soil treatment (Table 19, symbol N); assay type: in vivo, redroot pigweed (Amaranthus retroflexus); conditions: amount of applied herbicide 320 g/ha
How it was run: as §1

[17] = test system: chickweed; assay: Test Example 5: herbicidal effect by foliage application, plastic box (Table 20, symbol P); assay type: in vivo, common chickweed (Stellaria media); conditions: foliage application, three weeks after application
How it was run: as §3

[18] = test system: windgrass; assay: Test Example 4: herbicidal effect by soil treatment (Table 19, symbol L); assay type: in vivo, windgrass (Apera spica-venti); conditions: amount of applied herbicide 320 g/ha
How it was run: as §1

[19] = test system: southern crabgrass; assay: Test Example 5: herbicidal effect by foliage application, plastic box (Table 20, symbol F); assay type: in vivo, southern crabgrass (Digitaria ciliaris); conditions: foliage application, three weeks after application
How it was run: as §3

[20] = test system: wild oat; assay: Test Example 5: herbicidal effect by foliage application, plastic box (Table 20, symbol I); assay type: in vivo, wild oat (Avena fatua); conditions: foliage application, three weeks after application
How it was run: as §3

[21] = test system: chickweed; assay: Test Example 4: herbicidal effect by soil treatment (Table 19, symbol P); assay type: in vivo, common chickweed (Stellaria media); conditions: amount of applied herbicide 320 g/ha
How it was run: as §1

[22] = test system: barnyard grass; assay: Test Example 4: herbicidal effect by soil treatment (Table 19, symbol H); assay type: in vivo, barnyard grass (Echinochloa crus-galli); conditions: amount of applied herbicide 320 g/ha
How it was run: as §1

[23] = test system: wild oat; assay: Test Example 4: herbicidal effect by soil treatment (Table 19, symbol I); assay type: in vivo, wild oat (Avena fatua); conditions: amount of applied herbicide 320 g/ha
How it was run: as §1

[24] = test system: redroot pigweed; assay: Test Example 5: herbicidal effect by foliage application, plastic box (Table 20, symbol N); assay type: in vivo, redroot pigweed (Amaranthus retroflexus); conditions: foliage application, three weeks after application
How it was run: as §3

[25] = test system: lambsquarters; assay: Test Example 4: herbicidal effect by soil treatment (Table 19, symbol O); assay type: in vivo, lambsquarters (Chenopodium album); conditions: amount of applied herbicide 320 g/ha
How it was run: as §1

[26] = test system: Italian ryegrass; assay: Test Example 5: herbicidal effect by foliage application, plastic box (Table 20, symbol K); assay type: in vivo, Italian ryegrass (Lolium multiflorum); conditions: foliage application, three weeks after application
How it was run: as §3

[27] = test system: persian speedwell; assay: Test Example 5: herbicidal effect by foliage application, plastic box (Table 20, symbol R); assay type: in vivo, Persian speedwell (Veronica persica); conditions: foliage application, three weeks after application
How it was run: as §3

[28] = test system: Italian ryegrass; assay: Test Example 4: herbicidal effect by soil treatment (Table 19, symbol K); assay type: in vivo, Italian ryegrass (Lolium multiflorum); conditions: amount of applied herbicide 320 g/ha
How it was run: as §1

[29] = test system: green foxtail; assay: Test Example 4: herbicidal effect by soil treatment (Table 19, symbol G); assay type: in vivo, green foxtail (Setaria viridis); conditions: amount of applied herbicide 320 g/ha
How it was run: as §1

Row | SMILES | herbicidal effect rating, R: persian speedwell [1] | herbicidal effect on H (barnyard grass), rating 0-5 [2] | herbicidal effect on E (rice flat sedge), rating 0-5 [3] | herbicidal effect rating, M: velvetleaf [7] | herbicidal effect rating, Q: false cleavers [8] | herbicidal effect rating, J: blackgrass [10] | herbicidal effect on D (Chinese sprangletop), rating 0-5 [11] | herbicidal effect rating, F: southern crabgrass [14] | herbicidal effect rating, N: redroot pigweed [16] | herbicidal effect rating, L: windgrass [18] | herbicidal effect rating, P: chickweed [21] | herbicidal effect rating, H: barnyard grass [22] | herbicidal effect rating, I: wild oat [23] | herbicidal effect rating, O: lambsquarters [25] | herbicidal effect rating, K: Italian ryegrass [28] | herbicidal effect rating, G: green foxtail [29] | other results
1 | COc1c(C)cc(-c2sc3ccccc3c2-c2c(O)c(C)nn(C)c2=O)cc1C [1-074] | 3 (Herbicidal rate of 40% or more and less than 70%) | 3 (Herbicidal rate of 40% or more and less than 70%) | 5 (Herbicidal rate of 90% or more (almost completely withered)) | 0 (Herbicidal rate of 5% or less (almost no effect)) | 0 (Herbicidal rate of 5% or less (almost no effect)) | 0 (Herbicidal rate of 5% or less (almost no effect)) | 0 (Herbicidal rate of 5% or less (almost no effect)) | 0 (Herbicidal rate of 5% or less (almost no effect)) | 0 (Herbicidal rate of 5% or less (almost no effect)) | 0 (Herbicidal rate of 5% or less (almost no effect)) | 0 (Herbicidal rate of 5% or less (almost no effect)) | 0 (Herbicidal rate of 5% or less (almost no effect)) | 0 (Herbicidal rate of 5% or less (almost no effect)) | 0 (Herbicidal rate of 5% or less (almost no effect)) | 0 (Herbicidal rate of 5% or less (almost no effect)) | 0 (Herbicidal rate of 5% or less (almost no effect)) | herbicidal effect grade, O: lambsquarters ([4]; 320 g/ha): 0 (Herbicidal rate of 5% or less (almost no effect)); herbicidal effect grade, J: blackgrass ([5]; 320 g/ha): 0 (Herbicidal rate of 5% or less (almost no effect)); herbicidal effect grade, H: barnyard grass ([6]; 320 g/ha): 0 (Herbicidal rate of 5% or less (almost no effect)); herbicidal effect grade, L: windgrass ([9]; 320 g/ha): 0 (Herbicidal rate of 5% or less (almost no effect)); herbicidal effect grade, Q: false cleavers ([12]; 320 g/ha): 0 (Herbicidal rate of 5% or less (almost no effect)); herbicidal effect grade, G: green foxtail ([13]; 320 g/ha): 0 (Herbicidal rate of 5% or less (almost no effect)); herbicidal effect grade, M: velvetleaf ([15]; 320 g/ha): 0 (Herbicidal rate of 5% or less (almost no effect)); herbicidal effect grade, P: chickweed ([17]; 320 g/ha): 5 (Herbicidal rate of 90% or more (almost completely withered)); herbicidal effect grade, F: southern crabgrass ([19]; 320 g/ha): 0 (Herbicidal rate of 5% or less (almost no effect)); herbicidal effect grade, I: wild oat ([20]; 320 g/ha): 0 (Herbicidal rate of 5% or less (almost no effect)); herbicidal effect grade, N: redroot pigweed ([24]; 320 g/ha): 0 (Herbicidal rate of 5% or less (almost no effect)); herbicidal effect grade, K: Italian ryegrass ([26]; 320 g/ha): 4 (Herbicidal rate of 70% or more and less than 90%); herbicidal effect grade, R: persian speedwell ([27]; 320 g/ha): 5 (Herbicidal rate of 90% or more (almost completely withered))
2 | CCCC(=O)Oc1c(C)nn(C)c(=O)c1-c1c(-c2ccc3c(c2)OC(F)(F)O3)sc2ccccc12 [1-100] | 5 (Herbicidal rate of 90% or more (almost completely withered)) | 0 (Herbicidal rate of 5% or less (almost no effect)) | 4 (Herbicidal rate of 70% or more and less than 90%) | 0 (Herbicidal rate of 5% or less (almost no effect)) | 2 (Herbicidal rate of 20% or more and less than 40%) | 0 (Herbicidal rate of 5% or less (almost no effect)) | 0 (Herbicidal rate of 5% or less (almost no effect)) | 0 (Herbicidal rate of 5% or less (almost no effect)) | 0 (Herbicidal rate of 5% or less (almost no effect)) | 0 (Herbicidal rate of 5% or less (almost no effect)) | 2 (Herbicidal rate of 20% or more and less than 40%) | 0 (Herbicidal rate of 5% or less (almost no effect)) | 0 (Herbicidal rate of 5% or less (almost no effect)) | 0 (Herbicidal rate of 5% or less (almost no effect)) | 3 (Herbicidal rate of 40% or more and less than 70%) | 0 (Herbicidal rate of 5% or less (almost no effect)) | O: lambsquarters, herbicidal effect ([4]; AAH 320 g/ha): 0 (Herbicidal rate of 5% or less (almost no effect)); J: blackgrass, herbicidal effect ([5]; AAH 320 g/ha): 0 (Herbicidal rate of 5% or less (almost no effect)); H: barnyard grass, herbicidal effect ([6]; AAH 320 g/ha): 0 (Herbicidal rate of 5% or less (almost no effect)); L: windgrass, herbicidal effect ([9]; AAH 320 g/ha): 0 (Herbicidal rate of 5% or less (almost no effect)); Q: false cleavers, herbicidal effect ([12]; AAH 320 g/ha): 3 (Herbicidal rate of 40% or more and less than 70%); G: green foxtail, herbicidal effect ([13]; AAH 320 g/ha): 0 (Herbicidal rate of 5% or less (almost no effect)); M: velvetleaf, herbicidal effect ([15]; AAH 320 g/ha): 3 (Herbicidal rate of 40% or more and less than 70%); P: chickweed, herbicidal effect ([17]; AAH 320 g/ha): 5 (Herbicidal rate of 90% or more (almost completely withered)); F: southern crabgrass, herbicidal effect ([19]; AAH 320 g/ha): 0 (Herbicidal rate of 5% or less (almost no effect)); I: wild oat, herbicidal effect ([20]; AAH 320 g/ha): 1 (Herbicidal rate of 5% or more and less than 20%); N: redroot pigweed, herbicidal effect ([24]; AAH 320 g/ha): 0 (Herbicidal rate of 5% or less (almost no effect)); K: Italian ryegrass, herbicidal effect ([26]; AAH 320 g/ha): 1 (Herbicidal rate of 5% or more and less than 20%); R: persian speedwell, herbicidal effect ([27]; AAH 320 g/ha): 5 (Herbicidal rate of 90% or more (almost completely withered))
